Measured values from paper PMC11053098, “Unravelling and reconstructing the biosynthetic pathway of bergenin” (Nature Communications, 2024).

Key:
[1] = tested on: T1, AjCGT1; test: HPLC glycosyltransferase assay; format: biochemical, Ardisia japonica; details: co-substrate UDP-Glc; details in Supplementary Methods 5-7; substrate unstable in buffer; read-out: apparent Km
T1 construct: full-length cDNA in pET28a (BamHI/EcoRI), E. coli Transetta (DE3), Ni-NTA purified

[2] = tested on: T2, AjOMT2; test: HPLC methyltransferase assay; format: biochemical, Ardisia japonica; details: co-substrate SAM; metal-dependent (Mg2+); details in Supplementary Methods 5-7; read-out: apparent Km
T2 construct: cloned in pET28a (BamHI/EcoRI), E. coli Transetta (DE3), Ni-NTA purified

Km [1] [µM]	Compound	Km [2] [µM]
265	COc1c(O)cc(C(=O)O)cc1O [compound 3, 4-OMGA]	
	O=C(O)c1cc(O)c(O)c(O)c1 [compound 2, GA]	72
	O=C1O[C@@H]2[C@@H](O)[C@H](O)[C@@H](CO)O[C@H]2c2c1cc(O)c(O)c2O [compound 6, norbergenin]	494
